In PMC9743094, “Synthesis and Evaluation of Polymyxins Bearing Reductively Labile Disulfide-Linked Lipids” (Journal of Medicinal Chemistry, 2022):
≈ marks a conversion by molar mass, not a printed value. Read-outs that look alike come from different tables or passages of the source. Positions of bridges follow the written chain, without caps; N, C: chain ends. Non-standard residues stand in square brackets, D forms with d. Residues, ends and D or L forms follow the SMILES beside them. *: point of attachment. S(2-cyclohexylethyl) = C1CCC(CCS*)CC1; S(3-Methylbutyl) = CC(C)CCS*; Dab = NCC[C@H](N)C(=O)O

Columns and labels:
E. coli JS136 = type: cell-based; details: JS136
Protocol: (§1) Minimum inhibitory concentrations (MICs) on relevant Gram-negative bacteria were determined by broth microdilution, in accordance with CLSI guidelines. Indicated bacteria were taken from glycerol stocks and incubated overnight on blood agar at 37 °C. Well-isolated colonies were taken, suspended in TSB (5 mL), and grown to an OD600 of 0.5. Compounds to be tested were dissolved in DMSO (6.4 mg/mL), diluted in cation-adjusted Mueller–Hinton Broth (CAMHB) (12.5 and 20 μg/mL Mg^2+ and Ca^2+, respectively), and diluted serially on polypropylene microtiter plates. To the diluted compounds (50 μL per well) was added 50 μL of relevant bacterial suspension, to yield a final concentration of 10^6 CFU/mL. Plates were covered by adhesive gas-permeable membranes and incubated at 37 °C. MIC was read out as the lowest concentration that inhibited visual bacterial growth. Shown values are consistent results from at least duplicate experiments.
(§2) Bacterial strains used for MIC assays and extended MIC assessment
(§3) Strains: The following strains were obtained from BEI Resources, NIAID, NIH: E. Coli M0072, strain
(§4) Table S2. […] Values are given in μg/mL.
(§5) Species Strain ID Resistance Polymyxin B 18b 23a 24a

K. pneumoniae KP1.53 = type: cell-based; details: KP1.53
Protocol: as §1, §2, §3, §4, §5

A. baumannii RUH-134 = type: cell-based; details: RUH-134
Protocol: as §1, §2, §3, §4, §5

E. coli M0072 = type: cell-based; details: M0072
Protocol: as §1, §2, §3, §4, §5

P. aeruginosa 2018-007 = type: cell-based; details: 2018-007
Protocol: as §1, §2, §3, §4, §5

A. baumannii BAA-747 = type: cell-based; details: BAA-747
Protocol: as §1, §2, §3, §4, §5

P. aeruginosa M120 = type: cell-based; details: M120
Protocol: as §1, §2, §3, §4, §5

K. pneumoniae ATCC 29665 = type: cell-based; details: ATCC 29665
Protocol: as §1, §2, §3, §4, §5

K. pneumoniae RC0045 = type: cell-based; details: RC0045
Protocol: as §1, §2, §3, §4, §5

P. aeruginosa 2251 = type: cell-based; details: 2251
Protocol: as §1, §2, §3, §4, §5

E. coli 1793 = type: cell-based; details: 1793
Protocol: as §1, §2, §3, §4, §5

P. aeruginosa ATCC 10145 = type: cell-based; details: ATCC 10145
Protocol: as §1, §2, §3, §4, §5

P. aeruginosa (PAO1) = type: cell-based; details: PAO1, 2 h
Protocol: as §1
(§6) Table S3. MIC values [µg/mL] and relative toxicity values for disulfide containing polymyxin derivative 18b and
(§7) non-disulfide containing analogue 45. […]

A. baumanii (ATCC 17961) = type: cell-based; details: ATCC 17961, 2 h
Protocol: as §1, §6, §7

[1] = tested on: differentiated conditionally immortalized PTECs (ciPTECs, OAT-1); experiment: ciPTEC toxicity assay (PrestoBlue); type: cell-based, human
Protocol: ciPTECs (OAT-1) cells,[52],[53] grown to 90–100% confluence, were washed by Hanks’ balanced salt solution (HBSS; Gibco, Life Technologies, Paisley, U.K.) and detached by accutase (4 mL) for 5 min at 37 °C. The cells were then suspended in fresh medium (DMEM/F-12, supplemented with 10% fetal calf serum, insulin (5 μg/mL), transferrin (5 μg/mL), selenium (5 μg/mL) hydrocortisone (35 ng/mL), Epidermal Growth Factor (10 ng/mL) and tri-iodothyronine (40 pg/mL)). Cell density was adjusted to 2.0 × 10^5 cells/mL, of which 100 μL was added to each well of a 96-well plate. The cells were incubated for 24 h at 33 °C, followed by 6 days at 37 °C, in a humidified atmosphere containing 5% (v/v) CO2. The medium was refreshed every second or third day.
Compounds were dissolved and serially diluted in serum-free medium. Differentiated cells were washed once with HBSS and serially diluted compounds (80 μL/well) were transferred to the ciPTEC-containing plate. Compounds were incubated for 24 h at 37 °C; the cells were washed by HBSS, followed by incubation with 10% PrestoBlue cell viability reagent (Thermo Scientific, Vienna, Austria) in HBSS at 37 °C in the dark. Fluorescence was recorded (excitation: 530 nm, emission: 590 nm). Raw data are corrected for PrestoBlue background fluorescence and reported relative to the no-treatment control (cells with medium only). Viability data were fitted with GraphPad Prism software (version 5.03; GraphPad Software, La Jolla, CA), by nonlinear regression with 0 as bottom constraint. Presented data are based on triplicates.
Toxicity assessment on PTECs
Table S1. TC50 values for polymyxin analogues. Toxicity assessment on proximal tubular epithelial cells
performed using PrestoBlue™ assay. TC50 values are derived after non-linear regression analysis on cell viability
correspond to data obtained from 2 different batches of cells/analyses on different days. As the value for
polymyxin B differs 2-fold, values in the manuscript are presented relative to the polymyxin B value.
Compound TC50 (µ M) Compound TC50 (µ M)
Polymyxin B 80 Polymyxin B 41
Figure S3. Representative traces of ciPTECs’ viability after incubation with analogues for 24 hours. Shown data are based on […]

[2] = tested on: K. pneumoniae (ATCC 13883); type: cell-based; details: ATCC 13883
Protocol: as §1

[3] = tested on: A. baumannii (ATCC 19606); type: cell-based; details: ATCC 19606
Protocol: as §1

[4] = tested on: P. aeruginosa (ATCC 27853); type: cell-based; details: ATCC 27853
Protocol: as §1

E. coli (ATCC 25922) = type: cell-based; details: ATCC 25922
Protocol: as §1

A. baumannii NRZ-00687 = type: cell-based; details: NRZ-00687
Protocol: as §1, §2, §3, §4, §5

SMILES | MIC E. coli JS136 (E. coli JS136) [µg/mL] | MIC K. pneumoniae KP1.53 (K. pneumoniae KP1.53) [µg/mL] | MIC A. baumannii RUH-134 (A. baumannii RUH-134) [µg/mL] | MIC E. coli M0072 (E. coli M0072) [µg/mL] | MIC P. aeruginosa 2018-007 (P. aeruginosa 2018-007) [µg/mL] | MIC A. baumannii BAA-747 (A. baumannii BAA-747) [µg/mL] | MIC P. aeruginosa M120 (P. aeruginosa M120) [µg/mL] | MIC K. pneumoniae ATCC 29665 (K. pneumoniae ATCC 29665) [µg/mL] | MIC K. pneumoniae RC0045 (K. pneumoniae RC0045) [µg/mL] | MIC P. aeruginosa 2251 (P. aeruginosa 2251) [µg/mL] | MIC E. coli 1793 (E. coli 1793) [µg/mL] | MIC P. aeruginosa ATCC 10145 (P. aeruginosa ATCC 10145) [µg/mL] | ciPTEC Toxicity Index (relative to polymyxin B) [1] | also measured
CC(C)CCSSC[C@@H](N)C(=O)N[C@H](C(=O)N[C@@H](CCN)C(=O)N[C@H]1CCNC(=O)[C@H]([C@@H](C)O)NC(=O)[C@H](CCN)NC(=O)[C@H](CCN)NC(=O)[C@H](CC(C)C)NC(=O)[C@@H](Cc2ccccc2)NC(=O)[C@H](CCN)NC1=O)[C@@H](C)O [Compound 18b] (H-[dC](S(3-Methylbutyl))T[Dab][Dab][Dab][dF]L[Dab][Dab]T; lactam 4-C) | 0.5 (≈ 0.428 µM) | 1 (≈ 0.856 µM) | 1 (≈ 0.856 µM) | 0.5 (≈ 0.428 µM) | 2 (≈ 1.71 µM) | 0.5 (≈ 0.428 µM) | 2 (≈ 1.71 µM) | 0.5 (≈ 0.428 µM) | 0.5 (≈ 0.428 µM) | 2 (≈ 1.71 µM) | 0.25 (≈ 0.214 µM) | 2 (≈ 1.71 µM) | 4.7 | MIC P. aeruginosa (PAO1) (P. aeruginosa (PAO1)): 1 µg/mL (≈ 0.856 µM); MIC A. baumanii (ATCC 17961) (A. baumanii (ATCC 17961)): 0.25 µg/mL (≈ 0.214 µM); TC50, Day 1 [1]: 345 µM; TC50, Day 2 ([1]; 24 h): 192 µM
CC(C)C[C@@H]1NC(=O)[C@@H](Cc2ccccc2)NC(=O)[C@H](CCN)NC(=O)[C@@H](NC(=O)[C@H](CCN)NC(=O)[C@@H](NC(=O)[C@H](CSSCCC2CCCCC2)NC(=O)CN)[C@@H](C)O)CCNC(=O)[C@H]([C@@H](C)O)NC(=O)[C@H](CCN)NC(=O)[C@H](CCN)NC1=O [Compound 23a] (H-GC(S(2-cyclohexylethyl))T[Dab][Dab][Dab][dF]L[Dab][Dab]T; lactam 5-C) | 0.5 (≈ 0.395 µM) | 2 (≈ 1.58 µM) | 1 (≈ 0.79 µM) | 0.5 (≈ 0.395 µM) | 8 (≈ 6.32 µM) | 1 (≈ 0.79 µM) | 2 (≈ 1.58 µM) | 1 (≈ 0.79 µM) | 1 (≈ 0.79 µM) | 2 (≈ 1.58 µM) | 0.5 (≈ 0.395 µM) | 2 (≈ 1.58 µM) | 9.5 | MIC K. pneumoniae (ATCC 13883) [2]: 1 µg/mL (≈ 0.79 µM); MIC A. baumannii (ATCC 19606) [3]: 1 µg/mL (≈ 0.79 µM); MIC P. aeruginosa (ATCC 27853) [4]: 1 µg/mL (≈ 0.79 µM); MIC E. coli (ATCC 25922) (E. coli (ATCC 25922)): 1 µg/mL (≈ 0.79 µM); MIC A. baumannii NRZ-00687 (A. baumannii NRZ-00687): 0.5 µg/mL (≈ 0.395 µM); TC50, Day 2 [1]: 391 µM
